Results reported in patent US5658938A, “Substituted 1H-imidazoles” (U C B S.A., priority 1994, dated 1997).
Counter-ions that a name gives are not always drawn. Like-named read-outs stand apart in the source and are kept apart here.

Experiments:
[1] = target: T1, postsynaptic α1 -adrenergic receptor (Rattus norvegicus, UniProt P23944); assay: Postsynaptic α1-antagonist activity: inhibition of norepinephrine-induced contraction of the isolated aorta of the rat; settings: read-out: ED30 (concentration which causes 30% inhibition of the contraction induced by norepinephrine)
T1 construct: isolated aorta of the rat; from tissue; host or cells: rat isolated aorta
T1 sequence (P23944 1-561): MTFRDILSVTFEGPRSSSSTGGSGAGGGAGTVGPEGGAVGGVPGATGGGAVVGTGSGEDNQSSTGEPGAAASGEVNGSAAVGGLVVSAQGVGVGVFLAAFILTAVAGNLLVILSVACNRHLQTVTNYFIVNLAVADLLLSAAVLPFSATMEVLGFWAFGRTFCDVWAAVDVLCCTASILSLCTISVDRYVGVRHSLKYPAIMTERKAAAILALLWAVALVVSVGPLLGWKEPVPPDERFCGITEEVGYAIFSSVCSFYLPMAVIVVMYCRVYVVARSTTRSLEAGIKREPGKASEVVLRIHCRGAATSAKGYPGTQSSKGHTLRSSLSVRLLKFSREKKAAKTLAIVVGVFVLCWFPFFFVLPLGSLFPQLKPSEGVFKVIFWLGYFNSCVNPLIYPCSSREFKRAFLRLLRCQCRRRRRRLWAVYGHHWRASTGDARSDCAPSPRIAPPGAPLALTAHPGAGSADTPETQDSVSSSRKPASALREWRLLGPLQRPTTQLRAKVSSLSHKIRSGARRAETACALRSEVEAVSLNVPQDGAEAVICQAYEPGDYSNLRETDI
Procedure: A non selective α-agonist substance such as norepinephrine induces a sustained contraction of the isolated aorta of the rat (J. M. Van Rossum Arch. Int. Pharmacodyn. 143, (1963), 299-330). This contraction can be inhibited by α1 -adrenergic blocking substances such as prazosin. In this test, a control contraction is carried out with norepinephrine at 3.2×10^-8 mole/l. After washing and stabilizing the preparation, the compound to be tested is added to the bath. Norepinephrine is added 5 minutes after the compound tested, and inhibition of the contraction induced by norepinephrine is measured. Next, inhibition of the contraction induced by norepinephrine is evaluated a second and third time in the presence of increasing concentrations of the compound tested.

[2] = tested on: coronary occlusion in the rat; assay: Anti-ischemic and anti-hypertensive activity: coronary occlusion in the anesthetized rat (elevation of the T wave of the electrocardiogram, arterial pressure); assay type: in vivo, male albino rat of the Sprague-Dawley strain; settings: for change in vivo at 3 µmol/kg / change in vivo at 1 µmol/kg: Rattus norvegicus, iv
Source text: The cardiac anti-ischemic activity of compounds manifests itself by their capacity to oppose the elevation of the T wave of the electrocardiogram, induced by a coronary occlusion in the rat. Continuous monitoring of the arterial pressure also enables to reveal the anti-hypertensive effects. The animal used for the test is a male albino rat of the Sprague-Dawley strain, weighing 220 to 280 g. On the day of the experiment, the animal is anesthetized by intraperitoneal administration of pentobarbital (60 mg/kg), then placed under endotracheal intubation. A ligature system is fitted around the descending left anterior coronary artery according to the procedure of Johnston et el. (Can. J. Physiol. Pharmacol., 61 (1983), 1340-1353). After closing the thorax, three electrodes are arranged on the body of the animal ("V4" thoracic derivation), in order to continuously record the shape of the electrocardiogram signal (in particular the T wave). Catheters are introduced into the right carotid artery and the right jugular vein to measure the arterial pressure and to administer intravenously the compound tested or the vehicle solution. Four 45 second coronary occlusions are performed, separated by episodes of reperfusion of 30, 35 and 30 minutes respectively. The compound to be studied or the vehicle are administered intravenously in bolus, 30 minutes before occlusion 3. The T electrocardiographic signal and the arterial pressure are continuously measured during the entire experiment.
The effects of the compounds according to the invention are quantified by comparing the amplitude of the elevation of the T wave at occlusions 3 and 4 (that is 30 minutes and 60 minutes after administration) with its value at occlusion 2 (that is before administration).
the second column indicates the dose of compound administered, expressed in mole/kg;
the third and the fourth columns indicate the anti-ischemic effect caused by administering the compound tested. The anti-ischemic effect represents the reduction in the elevation of the T wave caused by coronary occlusions 3 and 4, expressed in % with respect to occlusion 2, before administration of the compound (ΔT3 and ΔT4 respectively);
the fifth and sixth columns indicate the anti-hypertensive effect caused by administration of the compound tested. The anti-hypertensive effect is expressed as the maximum lowering of arterial pressure, measured a) between 5 and 30 minutes, and b) between 30 and 60 minutes after intravenous injection of the compound tested (ΔPa and ΔPb respectively). This lowering is expressed in % with respect to the value measured before injection.

[3] = tested on: presynaptic α2 -adrenergic receptors; assay: Inhibition of the contraction of the electrically stimulated guinea pig ileum (presynaptic α2-agonist activity); settings: guinea pig ileum longitudinal muscle strips, electrical stimulation
Source text: Longitudinal muscle strips attached to an isometric strain gauge are suspended in Tyrode's solution and are stretched under a tension of 1 g (G. M. Drew, Brit. J. Pharmacol. 64, (1978), 293-300; M. Andrejak et al., Naunyn-Schmiedeberg's Arch. Pharmacol. 314, (1980), 83-87).
Electrical stimulation of the parasympathetic nerves associated with the ileum fragments causes a contraction of the muscle. This contraction is reduced in the presence of a presynaptic α2 -agonist and the magnitude by which the contraction is reduced depends on the concentration of the agonist used. This effect is antagonised by the simultaneous presence of an α2 -antagonist such as alpha-yohimbine.
The IC30 concentration (in mole/l) that reduces by 30% the intensity of the contraction of the muscle is determined.

[4] = tested on: male NMRI mice; assay: Toxicity, Irwin's test; assay type: in vivo; settings: intraperitoneal
Procedure: The toxicity of the compounds of the invention has been determined in male NMRI mice by means of Irwin's test (S. Irwin, Psychopharmacologia (Berl.), 13, (1968), 222-257).
Progressive doses of the product studied are administered intraperitoneally to groups of three mice until a lethal dose is reached (dose causing the death of two out of three animals in 48 hours). It follows from this Table that the compounds of the invention are not very toxic.

[5] = 0.5 h, read-out: ΔPa (maximum lowering of arterial pressure)
[6] = 0.5 h, read-out: ΔT3 (anti-ischemic effect: change in elevation of the T wave, occlusion 3 vs occlusion 2)
[7] = 1 h, read-out: ΔPb (maximum lowering of arterial pressure)
[8] = 1 h, read-out: ΔT4 (anti-ischemic effect: change in elevation of the T wave, occlusion 4 vs occlusion 2)

Compound | IC30 [1] [nM] | IC30 (concentration that reduces by 30% the intensity of the contraction of the muscle) [3] [nM] | Lethal dose (dose causing the death of two out of three animals in 48 hours) [4] [mg/kg] | change in vivo at 3 µmol/kg [2, 5] [%] | change in vivo at 3 µmol/kg [2, 6] [%] | change in vivo at 3 µmol/kg [2, 7] [%] | change in vivo at 3 µmol/kg [2, 8] [%] | further results
COc1cc2nc(N3CCN(C(=O)c4ccco4)CC3)nc(N)c2cc1OC [Prazosin, 1-(4-amino-6,7-dimethoxy-2-quinazolinyl)-4-(2-furanylcarbonyl)piperazine, reference compound] | 0.23 |  |  |  |  |  |  | anti-ischemic effect, in words ([2]; i.v., Table I): absence of a significant anti-ischemic effect
COc1ccc2c(c1)CCC2c1c[nH]cn1 (stereo not drawn) [Compound C, 4-(2,3-dihydro-5-methoxy-1H-inden-1-yl)-1H-imidazole] | 100 | 32 | 214.3 | -44 | -52 | -43 | -66 | 
Cl.Oc1cccc2c1CCCC2c1c[nH]cn1 (stereo not drawn) [Compound F, 5,6,7,8-tetrahydro-5-(1H-imidazol-4-yl)-1-naphthalenol hydrochloride] | 230 | 3.7 | 214.3 | -32 | -64 | -36 | -59 | 
COc1ccc2c(c1)CCCC2c1c[nH]cn1 (single isomer, unassigned; (+)) [Compound A, (+)-4-(1,2,3,4-tetrahydro-6-methoxy-1-naphthalenyl)-1H-imidazole] | 21 | 30 | 228.3 | -32 | -80 | -28 | -33 | 
COc1cccc2c1C(c1c[nH]cn1)CCC2 (stereo not drawn) [Compound I, 4-(1,2,3,4-tetrahydro-8-methoxy-1-naphthalenyl)-1H-imidazole] | 1800 | 8000 | 228.3 |  |  |  |  | change in vivo at 1 µmol/kg [2, 5]: -26%; change in vivo at 1 µmol/kg [2, 6]: -37%; change in vivo at 1 µmol/kg [2, 7]: -16%; change in vivo at 1 µmol/kg [2, 8]: -57%
COc1cc2c(cc1OC)C(c1c[nH]cn1)CCC2 (stereo not drawn) [Compound J, 4-(1,2,3,4-tetrahydro-6,7-dimethoxy-1-naphthalenyl)-1H-imidazole] | 2900 | 130 | 258.3 |  |  |  |  | change in vivo at 1 µmol/kg [2, 5]: -23%; change in vivo at 1 µmol/kg [2, 6]: -31%; change in vivo at 1 µmol/kg [2, 7]: -16%; change in vivo at 1 µmol/kg [2, 8]: -29%
Cc1ccc2c(c1)CCCC2c1c[nH]cn1 (stereo not drawn) [Compound G, 4-(1,2,3,4-tetrahydro-6-methyl-1-naphthalenyl)-1H-imidazole] | 72 | 30 | 118.9 | -22 | -24 | -14 | -16 | 
NC(=O)c1cccc(Cc2c[nH]cn2)c1O [Mivazerol, 2-hydroxy-3-[(1H-imidazol-4-yl)methyl]benzamide hydrochloride, reference compound] |  |  |  | -1 | -34 | -6 | -22 | 
Cl.Oc1cc2c(cc1O)C(c1c[nH]cn1)CCC2 (stereo not drawn) [Compound K, 5,6,7,8-tetrahydro-5-(1H-imidazol-4-yl)-2,3-naphthalenediol hydrochloride] |  | 16 | > 85.4 | -29 | -49 | -41 | -47 | 
Oc1ccc2c(c1)CCCC2c1c[nH]cn1 (single isomer, unassigned; (+)) [Compound D, (+)-5,6,7,8-tetrahydro-5-(1H-imidazol-4-yl)-2-naphthalenol] | 420 | 1.8 | > 68.6 |  |  |  |  | change in vivo at 1 µmol/kg [2, 5]: -30%; change in vivo at 1 µmol/kg [2, 6]: -50%; change in vivo at 1 µmol/kg [2, 7]: -17%; change in vivo at 1 µmol/kg [2, 8]: -31%
CC(C)NCC(O)COc1cccc2ccccc12 (stereo not drawn) [Propranolol, 1-[(1-methylethyl)amino]-3-(1-naphthalenyloxy)-2-propanol, reference compound] |  |  |  |  |  |  |  | change in vivo at 3 µmol/kg ([2]; 0.5 h, i.v. bolus, 3.2 × 10^-6 mole/kg, 30 minutes after administration, read-out: ΔT3 (anti-ischemic effect: change in elevation of the T wave, occlusion 3 vs occlusion 2)): -21%; change in vivo at 3 µmol/kg ([2]; 0.5 h, i.v. bolus, 3.2 × 10^-6 mole/kg, between 5 and 30 minutes after injection, read-out: ΔPa (maximum lowering of arterial pressure)): 7%; change in vivo at 3 µmol/kg ([2]; 1 h, i.v. bolus, 3.2 × 10^-6 mole/kg, 60 minutes after administration, read-out: ΔT4 (anti-ischemic effect: change in elevation of the T wave, occlusion 4 vs occlusion 2)): -30%; change in vivo at 3 µmol/kg ([2]; 1 h, i.v. bolus, 3.2 × 10^-6 mole/kg, between 30 and 60 minutes after injection, read-out: ΔPb (maximum lowering of arterial pressure)): 5%
Cc1cc(C(C)(C)C)c(O)c(C)c1CC1=NCCN1 [Oxymetazoline, 3-[(4,5-dihydro-1H-imidazol-2-yl)methyl]-6-(1,1-dimethylethyl)-2,4-dimethylphenol, reference compound] |  | 12 |  |  |  |  |  | change in vivo at 3 µmol/kg ([2]; 0.5 h, i.v. bolus, 3.2 × 10^-8 mole/kg, 30 minutes after administration, read-out: ΔT3 (anti-ischemic effect: change in elevation of the T wave, occlusion 3 vs occlusion 2)): -45%; change in vivo at 3 µmol/kg ([2]; 1 h, i.v. bolus, 3.2 × 10^-8 mole/kg, 60 minutes after administration, read-out: ΔT4 (anti-ischemic effect: change in elevation of the T wave, occlusion 4 vs occlusion 2)): -38%; change in vivo at 3 µmol/kg ([2]; 1 h, i.v. bolus, 3.2 × 10^-8 mole/kg, between 30 and 60 minutes after injection, read-out: ΔPb (maximum lowering of arterial pressure)): 0%
